From patent US6979572B1, “Compositions and methods for inhibiting inward-rectifier potassium channels” (Trustees of the University of Pennsylvania, priority 1998, dated 2005)
pKd: −log10 of the molar value. Square brackets hold non-standard residues; d marks the D form. Ends that are not written are not given here. Met(O) = CS(=O)CC[C@H](N)C(=O)O

Tests used:
[1] = molecular target: T1, ROMK1 inward-rectifier K+ channel (Rattus norvegicus, UniProt P35560); conditions: literature values; read-out: Kd for block of ROMK1; cited from earlier work
T1 sequence (P35560 1-391): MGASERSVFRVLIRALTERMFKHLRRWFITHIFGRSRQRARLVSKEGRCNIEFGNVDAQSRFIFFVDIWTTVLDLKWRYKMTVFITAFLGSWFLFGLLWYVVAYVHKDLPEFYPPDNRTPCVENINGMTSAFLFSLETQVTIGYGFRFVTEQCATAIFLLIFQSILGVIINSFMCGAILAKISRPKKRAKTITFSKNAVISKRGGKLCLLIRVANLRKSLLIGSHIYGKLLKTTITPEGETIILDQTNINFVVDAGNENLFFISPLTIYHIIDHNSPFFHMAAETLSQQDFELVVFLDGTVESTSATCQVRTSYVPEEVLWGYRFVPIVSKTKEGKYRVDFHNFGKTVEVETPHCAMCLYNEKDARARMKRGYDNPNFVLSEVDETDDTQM

ROMK1 channel = molecular target: T2, ROMK1 channel (Rattus norvegicus, UniProt P35560); test: Two-electrode voltage clamp of wild-type ROMK1 channel in Xenopus oocytes; format: cell-based
T2 construct: expressed in transfected cells; host or cells: Xenopus laevis oocytes (cRNA injection)
T2 sequence (P35560 1-391): T1 sequence (P35560 1-391)
Method: Oocytes harvested from Xenopus laevis frogs were digested with collagenase (2 mg/mL) in a solution containing: NaCl, 82.5 mM; KCl, 2.5 mM; MgCl2, 1.0 mM; HEPES, 5.0 mM (pH 7.6) and were agitated on a platform shaker at a rate of 80 rpm for 90 minutes. The oocytes were then rinsed thoroughly with and stored in a solution containing: gentamicin, 50 μg/mL; NaCl, 96 mM; KCl, 2 mM; CaCl2, 1.8 mM; MgCl, 1 mM; HEPES, 5 mM (pH 7.6). Defolliculated oocytes were selected at least 2 hours after the collagenase digestion. To express channels, the corresponding cRNA was directly injected into oocytes. To express the GIRK1/4 channel, GIRK1 and GIRK4 cRNAs were co-injected with either M2 or M4 receptor cRNA. All injections were carried out at least 16 hours after the collagenase treatment. The injected oocytes were stored in an 18° C. incubator.
All three inward-rectifier K^+ channels, GIRK1/4, ROMK1, and IRK1, were studied using a two-electrode voltage clamp amplifier (Oocyte Clamp OC-725C, Warner Instruments Corp.). The resistance of electrodes filled with 3 M KCl were 0.2–0.4 M Ω. To elicit current through the channel, the membrane potential of oocytes was stepped to −80 mV (100–125 ms) and then to +80 mV (100–125 ms) from the holding potential of 0 mV. […] Tertiapin concentration was calculated using an extinction coefficient 6.1 mM^−1 cm^−1 at 280 nm wavelength. […]

Substance	pKd [1]	sensitivity / affinity of the ROMK1 channel, in words (ROMK1 channel)
Δ-dendrotoxin	6.82	–
oxidized form of tertiapin: tertiapin whose methionine residue M13 has become oxidized (ALCNCNRIIIPH[Met(O)]CWKKCGKK; disulfide (positions not given here); ends not checked; UniProt P56587 1-21, looked up)	–	lower affinity than the non-oxidized form
